Assay results from ChEMBL document CHEMBL1201862, “PubChem BioAssay data set” (2004).
Active and inactive are the calls of the source.

Experiments:
Estrogen receptor = target: T1, Estrogen receptor (Homo sapiens, UniProt P03372);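 note: potency for inhibiting coactivator peptide recruitment to the receptor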
T1 sequence (P03372 whole entry): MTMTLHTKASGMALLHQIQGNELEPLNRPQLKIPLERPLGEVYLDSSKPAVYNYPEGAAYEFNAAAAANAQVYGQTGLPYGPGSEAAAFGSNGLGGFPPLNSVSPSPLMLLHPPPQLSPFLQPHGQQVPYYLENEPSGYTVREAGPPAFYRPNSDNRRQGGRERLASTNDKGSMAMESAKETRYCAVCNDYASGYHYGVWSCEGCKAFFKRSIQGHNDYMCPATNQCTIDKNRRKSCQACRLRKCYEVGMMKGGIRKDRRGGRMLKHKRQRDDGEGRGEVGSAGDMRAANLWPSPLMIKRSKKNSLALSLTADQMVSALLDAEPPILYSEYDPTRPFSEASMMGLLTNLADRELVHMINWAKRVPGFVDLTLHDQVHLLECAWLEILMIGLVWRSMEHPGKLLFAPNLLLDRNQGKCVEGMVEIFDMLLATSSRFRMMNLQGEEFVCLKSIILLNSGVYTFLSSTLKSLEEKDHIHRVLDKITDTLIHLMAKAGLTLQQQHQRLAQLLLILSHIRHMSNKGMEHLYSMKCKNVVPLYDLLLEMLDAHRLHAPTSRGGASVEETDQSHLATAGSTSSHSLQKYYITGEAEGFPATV

HEK293 [1] = test: cells; assay type: functional, cell-based; settings: Homo sapiens
HEK293 [2] = test: NOD2 signaling inhibitors in MDP-stimulated cells, cell-based, uHTS, luminescence (AID 2001); assay type: functional; settings: Homo sapiens
HEK293 [3] = test: cells; assay type: functional, cell-based; settings: Homo sapiens; remark: listed apart in the source
HEK293 [4] = test: cells; assay type: functional, cell-based; settings: Homo sapiens; remark: listed apart in the source
[5] = target: Nucleotide-binding oligomerization domain-containing protein 2 (Homo sapiens, UniProt Q9HC29); test: NOD2 signaling inhibitors, cell-based, luminescence, uHTS, HEK293 (AID 1566); assay type: functional
HEK293 [6] = test: NOD1 signaling inhibitors, primary screen, cell-based, luminescence, uHTS (AID 1578); assay type: functional; settings: Homo sapiens
Cytochrome P450 2C9 = Cytochrome P450 2C9 (Homo sapiens, UniProt P11712)
[7] = cytotoxicity toward NIH3T3 fibroblasts, dose response, counter-screen, cell-based, ATP luminescence, mouse fibroblasts (AID 2010); assay type: functional;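 note: cells exposed to compound for about 90 hours before reading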
[8] = inhibitors of intracellular T. cruzi replication, confirmation, NIH3T3 host cells, beta-gal luminescence (AID 2044); assay type: functional, cell-based;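 note: intracellular parasites grown in NIH/3T3 mouse fibroblasts as host cells; luminescent beta-galactosidase reporter signal from transgenic T. cruzi replicating inside host cells; inhibitors lower the luminescence signal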
cells [9] = test: cells
[10] = target: T2, DNA repair and recombination protein RAD54-like (Homo sapiens, UniProt Q92698); test: inhibitors of human RAD54 branch migration, confirmation, biochemical, fluorescence, cherry-picked samples, dose series (AID 651657); assay type: functional
T2 sequence (Q92698 whole entry): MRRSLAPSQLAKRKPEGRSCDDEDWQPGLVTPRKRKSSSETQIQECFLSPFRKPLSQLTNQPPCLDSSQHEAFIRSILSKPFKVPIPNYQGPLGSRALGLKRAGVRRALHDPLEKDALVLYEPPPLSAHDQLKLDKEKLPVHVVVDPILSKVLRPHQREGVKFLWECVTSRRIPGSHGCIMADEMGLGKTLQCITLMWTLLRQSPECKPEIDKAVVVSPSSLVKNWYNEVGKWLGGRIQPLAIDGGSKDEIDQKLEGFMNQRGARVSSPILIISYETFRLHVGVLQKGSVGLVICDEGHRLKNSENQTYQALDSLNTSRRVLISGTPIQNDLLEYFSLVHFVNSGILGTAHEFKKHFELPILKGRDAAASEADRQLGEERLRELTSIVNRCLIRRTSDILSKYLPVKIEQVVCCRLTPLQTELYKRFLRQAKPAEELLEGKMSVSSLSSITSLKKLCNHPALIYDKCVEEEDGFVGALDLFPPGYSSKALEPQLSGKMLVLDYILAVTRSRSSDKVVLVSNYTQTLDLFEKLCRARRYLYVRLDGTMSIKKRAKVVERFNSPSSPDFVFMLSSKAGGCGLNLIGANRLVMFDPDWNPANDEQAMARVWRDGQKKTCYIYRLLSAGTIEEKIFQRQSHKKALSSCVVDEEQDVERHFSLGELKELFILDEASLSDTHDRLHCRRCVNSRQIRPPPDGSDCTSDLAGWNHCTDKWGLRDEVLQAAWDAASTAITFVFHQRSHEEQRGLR

HEK293 [11] = test: cells; settings: Homo sapiens
Tumor necrosis factor = Tumor necrosis factor (Homo sapiens, UniProt P01375); test: TNFa-triggered NF-kB activation inhibitors, SAR follow-up, cell-based, revised (AID 2337); assay type: functional
Fatty acid synthase [12] = target: T3, Fatty acid synthase (Homo sapiens, UniProt P49327); test: FAS thioesterase domain inhibitors, dose response, biochemical, kinetic fluorescence intensity (AID 624326); assay type: functional;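 note: rate of fluorescence rise from hydrolysis of a fluorogenic O-methyl fluorescein ester substrate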
Fatty acid synthase [13] = target: T3, Fatty acid synthase; test: FAS thioesterase domain inhibitors, dose response, biochemical, endpoint fluorescence intensity, uHTS hits (AID 624327); assay type: functional;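 note: fluorescence from hydrolysis of an O-methyl fluorescein acyl ester substrate by the enzyme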
Nonstructural protein 1 = Nonstructural protein 1 (Influenza A virus, UniProt Q194T2); assay type: functional, Influenza A virus (A/California/07/2009(H1N1))
[14] = target: T4, Adenosylmethionine-8-amino-7-oxononanoate aminotransferase (Mycobacterium tuberculosis, UniProt P9WQ81); test: Mycobacterium tuberculosis BioA enzyme inhibitor Measured in Biochemical System Using Plate Reader - 2163-02_Inhibitor_Dose_CherryPick_Activity.; assay type: functional, Mycobacterium tuberculosis UT205
T4 sequence (P9WQ81 whole entry): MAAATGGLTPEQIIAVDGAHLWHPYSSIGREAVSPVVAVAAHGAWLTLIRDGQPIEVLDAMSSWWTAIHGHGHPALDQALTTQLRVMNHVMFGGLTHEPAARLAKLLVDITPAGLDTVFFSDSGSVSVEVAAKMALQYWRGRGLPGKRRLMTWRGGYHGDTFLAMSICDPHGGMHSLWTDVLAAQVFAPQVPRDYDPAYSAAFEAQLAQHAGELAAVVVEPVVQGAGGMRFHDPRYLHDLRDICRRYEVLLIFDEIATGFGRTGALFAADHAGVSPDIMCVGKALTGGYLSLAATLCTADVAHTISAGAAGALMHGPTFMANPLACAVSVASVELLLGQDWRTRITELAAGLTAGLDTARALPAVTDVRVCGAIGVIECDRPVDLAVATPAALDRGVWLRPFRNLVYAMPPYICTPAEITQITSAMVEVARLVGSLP

cells [15] = assay type: functional
[16] = Vero E6 cell cytotoxicity, dose response, cytotoxicity control for non-replicating M. tuberculosis project, secondary assay (AID 492998); assay type: functional, VeroE6; settings: Vero C1008
[17] = P. falciparum Dd2 growth inhibitors, dose response, SYBR Green, cherry-picked samples (AID 1159567); assay type: functional, cell-based
[18] = intracellular Trypanosoma cruzi inhibitors in host cells – cell-based, plate reader, cherry-pick samples, set 3, dose response (AID 651818); assay type: functional;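 note: compounds incubated with infected cells for about four days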
Cytochrome P450 3A4 = Cytochrome P450 3A4 (Homo sapiens, UniProt P08684); settings: Potency;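 note: confirmatory qHTS run detecting inhibitors and substrates of CYP3A4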
Sequence of Cytochrome P450 3A4 (P08684 whole entry): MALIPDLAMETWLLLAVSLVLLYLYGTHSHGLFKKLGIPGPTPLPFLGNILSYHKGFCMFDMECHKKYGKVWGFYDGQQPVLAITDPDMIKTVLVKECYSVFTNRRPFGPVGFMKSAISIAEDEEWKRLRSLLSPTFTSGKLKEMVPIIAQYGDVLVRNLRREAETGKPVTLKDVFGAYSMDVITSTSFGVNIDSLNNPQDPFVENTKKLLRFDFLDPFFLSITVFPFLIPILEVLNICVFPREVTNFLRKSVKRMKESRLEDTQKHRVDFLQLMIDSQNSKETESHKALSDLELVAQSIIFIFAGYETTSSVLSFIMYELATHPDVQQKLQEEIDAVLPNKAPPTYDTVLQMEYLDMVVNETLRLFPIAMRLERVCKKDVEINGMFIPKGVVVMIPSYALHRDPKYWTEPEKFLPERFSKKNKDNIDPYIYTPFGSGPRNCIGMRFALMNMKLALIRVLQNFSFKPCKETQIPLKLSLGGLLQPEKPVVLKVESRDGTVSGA

T3 sequence (P49327 whole entry, the tested form may be a part): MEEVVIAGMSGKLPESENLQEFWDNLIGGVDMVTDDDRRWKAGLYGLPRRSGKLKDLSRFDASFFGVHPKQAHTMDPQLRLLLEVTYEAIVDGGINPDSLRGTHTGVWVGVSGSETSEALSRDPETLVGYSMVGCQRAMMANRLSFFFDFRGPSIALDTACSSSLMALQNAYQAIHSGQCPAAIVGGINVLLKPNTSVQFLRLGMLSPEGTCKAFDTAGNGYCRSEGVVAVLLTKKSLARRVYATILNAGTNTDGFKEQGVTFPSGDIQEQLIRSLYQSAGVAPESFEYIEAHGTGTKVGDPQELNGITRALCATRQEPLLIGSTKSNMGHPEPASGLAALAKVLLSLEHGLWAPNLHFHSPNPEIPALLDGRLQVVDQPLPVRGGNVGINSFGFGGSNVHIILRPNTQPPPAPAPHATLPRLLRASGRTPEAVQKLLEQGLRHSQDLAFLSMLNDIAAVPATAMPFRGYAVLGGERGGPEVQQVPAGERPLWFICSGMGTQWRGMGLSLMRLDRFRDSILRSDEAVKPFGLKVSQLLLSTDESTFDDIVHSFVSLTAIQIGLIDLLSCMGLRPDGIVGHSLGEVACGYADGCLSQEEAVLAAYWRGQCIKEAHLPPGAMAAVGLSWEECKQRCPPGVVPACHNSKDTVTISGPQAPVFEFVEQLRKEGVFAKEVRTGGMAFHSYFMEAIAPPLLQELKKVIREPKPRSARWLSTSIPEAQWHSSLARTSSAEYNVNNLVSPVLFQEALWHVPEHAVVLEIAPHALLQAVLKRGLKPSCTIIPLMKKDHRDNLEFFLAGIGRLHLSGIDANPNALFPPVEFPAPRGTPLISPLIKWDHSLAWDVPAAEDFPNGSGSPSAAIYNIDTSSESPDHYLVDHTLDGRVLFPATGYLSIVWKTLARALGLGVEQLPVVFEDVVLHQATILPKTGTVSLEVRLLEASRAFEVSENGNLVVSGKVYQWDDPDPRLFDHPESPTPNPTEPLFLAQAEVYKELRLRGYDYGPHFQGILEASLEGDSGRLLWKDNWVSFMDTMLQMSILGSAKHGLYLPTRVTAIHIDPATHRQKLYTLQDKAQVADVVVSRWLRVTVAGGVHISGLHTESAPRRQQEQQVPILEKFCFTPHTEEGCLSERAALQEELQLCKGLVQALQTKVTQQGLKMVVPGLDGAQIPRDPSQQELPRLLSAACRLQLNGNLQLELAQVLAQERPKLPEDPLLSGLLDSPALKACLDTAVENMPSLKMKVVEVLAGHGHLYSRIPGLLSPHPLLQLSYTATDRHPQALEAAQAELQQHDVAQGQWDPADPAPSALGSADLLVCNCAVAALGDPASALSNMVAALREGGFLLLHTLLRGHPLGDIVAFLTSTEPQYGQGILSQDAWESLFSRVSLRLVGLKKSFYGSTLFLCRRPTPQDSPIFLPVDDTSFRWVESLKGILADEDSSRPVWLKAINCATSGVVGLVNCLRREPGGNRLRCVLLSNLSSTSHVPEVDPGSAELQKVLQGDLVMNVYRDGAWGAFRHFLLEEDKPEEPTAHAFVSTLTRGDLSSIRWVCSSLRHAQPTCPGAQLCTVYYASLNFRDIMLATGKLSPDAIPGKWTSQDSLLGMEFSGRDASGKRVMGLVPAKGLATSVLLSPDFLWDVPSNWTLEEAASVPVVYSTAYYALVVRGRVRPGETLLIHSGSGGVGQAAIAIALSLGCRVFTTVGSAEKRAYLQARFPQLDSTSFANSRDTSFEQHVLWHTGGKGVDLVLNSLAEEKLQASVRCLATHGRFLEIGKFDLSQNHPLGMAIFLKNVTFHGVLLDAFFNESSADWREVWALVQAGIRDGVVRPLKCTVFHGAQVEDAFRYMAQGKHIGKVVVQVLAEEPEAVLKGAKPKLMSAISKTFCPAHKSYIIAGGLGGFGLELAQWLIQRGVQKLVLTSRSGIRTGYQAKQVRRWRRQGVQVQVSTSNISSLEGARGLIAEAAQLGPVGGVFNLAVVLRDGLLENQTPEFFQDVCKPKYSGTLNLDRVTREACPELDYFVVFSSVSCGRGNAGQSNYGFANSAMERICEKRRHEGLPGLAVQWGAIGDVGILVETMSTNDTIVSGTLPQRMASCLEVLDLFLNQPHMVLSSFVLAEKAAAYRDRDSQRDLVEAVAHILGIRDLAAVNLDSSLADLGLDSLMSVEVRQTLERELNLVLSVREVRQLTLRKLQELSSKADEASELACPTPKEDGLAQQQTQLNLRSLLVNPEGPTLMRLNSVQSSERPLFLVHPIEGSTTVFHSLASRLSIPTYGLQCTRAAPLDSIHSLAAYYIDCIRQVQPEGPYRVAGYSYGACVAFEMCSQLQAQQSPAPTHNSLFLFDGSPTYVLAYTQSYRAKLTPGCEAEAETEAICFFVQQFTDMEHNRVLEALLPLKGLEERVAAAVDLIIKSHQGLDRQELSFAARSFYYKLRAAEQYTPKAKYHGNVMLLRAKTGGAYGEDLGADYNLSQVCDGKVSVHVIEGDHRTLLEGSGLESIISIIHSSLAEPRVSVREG
Sequence of Nucleotide-binding oligomerization domain-containing protein 2 (Q9HC29 whole entry, the tested form may be a part): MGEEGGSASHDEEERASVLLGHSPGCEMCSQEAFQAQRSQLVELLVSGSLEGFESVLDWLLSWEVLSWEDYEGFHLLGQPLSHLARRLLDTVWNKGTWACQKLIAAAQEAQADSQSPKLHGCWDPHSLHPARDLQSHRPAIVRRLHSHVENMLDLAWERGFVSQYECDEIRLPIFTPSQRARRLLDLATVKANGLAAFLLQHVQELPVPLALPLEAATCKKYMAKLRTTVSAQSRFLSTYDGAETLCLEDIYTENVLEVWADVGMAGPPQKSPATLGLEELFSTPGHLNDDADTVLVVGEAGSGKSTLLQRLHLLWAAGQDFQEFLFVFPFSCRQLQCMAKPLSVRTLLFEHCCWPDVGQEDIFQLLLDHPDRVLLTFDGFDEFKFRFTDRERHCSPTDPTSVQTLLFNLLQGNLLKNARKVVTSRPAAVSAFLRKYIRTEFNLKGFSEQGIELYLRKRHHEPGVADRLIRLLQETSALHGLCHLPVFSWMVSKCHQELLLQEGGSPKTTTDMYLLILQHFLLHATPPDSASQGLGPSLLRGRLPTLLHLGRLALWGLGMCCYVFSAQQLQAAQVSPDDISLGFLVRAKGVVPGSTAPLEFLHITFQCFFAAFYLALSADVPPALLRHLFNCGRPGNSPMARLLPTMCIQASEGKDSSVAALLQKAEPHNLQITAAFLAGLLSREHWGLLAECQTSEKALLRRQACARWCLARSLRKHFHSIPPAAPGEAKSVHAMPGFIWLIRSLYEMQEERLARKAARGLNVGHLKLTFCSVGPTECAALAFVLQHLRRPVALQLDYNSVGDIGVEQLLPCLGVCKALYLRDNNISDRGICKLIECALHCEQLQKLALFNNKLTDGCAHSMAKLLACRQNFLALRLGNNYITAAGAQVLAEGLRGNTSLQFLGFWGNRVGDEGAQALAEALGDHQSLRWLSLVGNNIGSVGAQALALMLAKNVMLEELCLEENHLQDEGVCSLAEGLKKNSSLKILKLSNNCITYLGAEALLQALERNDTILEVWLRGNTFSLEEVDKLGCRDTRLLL
Sequence of Nonstructural protein 1 (Q194T2 whole entry): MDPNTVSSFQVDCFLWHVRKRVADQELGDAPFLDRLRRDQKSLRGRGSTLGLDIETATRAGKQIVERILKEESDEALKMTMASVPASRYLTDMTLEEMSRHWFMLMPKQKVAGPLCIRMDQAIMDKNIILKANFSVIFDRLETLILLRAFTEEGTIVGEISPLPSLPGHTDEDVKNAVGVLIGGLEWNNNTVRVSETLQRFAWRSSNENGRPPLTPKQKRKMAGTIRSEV
Sequence of Cytochrome P450 2C9 (P11712 whole entry): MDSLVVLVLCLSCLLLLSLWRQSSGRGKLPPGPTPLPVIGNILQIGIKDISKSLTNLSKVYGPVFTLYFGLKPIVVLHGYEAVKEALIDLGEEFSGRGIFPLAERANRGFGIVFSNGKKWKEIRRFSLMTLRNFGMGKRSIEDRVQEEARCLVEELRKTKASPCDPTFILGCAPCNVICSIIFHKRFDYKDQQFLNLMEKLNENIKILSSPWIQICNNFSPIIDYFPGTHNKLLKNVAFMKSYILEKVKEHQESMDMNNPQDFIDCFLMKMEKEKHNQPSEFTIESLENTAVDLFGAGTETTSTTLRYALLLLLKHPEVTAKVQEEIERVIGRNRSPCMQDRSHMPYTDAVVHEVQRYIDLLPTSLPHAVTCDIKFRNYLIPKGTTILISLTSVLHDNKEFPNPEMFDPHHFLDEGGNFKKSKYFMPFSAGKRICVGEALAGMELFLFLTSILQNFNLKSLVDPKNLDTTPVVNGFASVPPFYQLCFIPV
Sequence of Tumor necrosis factor (P01375 whole entry, the tested form may be a part): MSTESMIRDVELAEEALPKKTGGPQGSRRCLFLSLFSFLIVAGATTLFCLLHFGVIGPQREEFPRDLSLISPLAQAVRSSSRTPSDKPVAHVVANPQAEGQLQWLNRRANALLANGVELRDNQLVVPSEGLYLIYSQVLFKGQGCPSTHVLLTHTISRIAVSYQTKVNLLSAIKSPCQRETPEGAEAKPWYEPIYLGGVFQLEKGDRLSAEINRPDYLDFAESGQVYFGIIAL

COc1ccc(C(=O)CSc2nnc(C3CCCCC3)n2N)c(OC)c1
IC50 (Estrogen receptor): > 50 µM (not active)

O=S(=O)(Nc1nc2ccccc2nc1Nc1ccc2c(c1)OCO2)c1ccc(F)cc1
IC50 (HEK293 [1]): > 20 µM (inactive)
IC50 (HEK293 [2]): 6.29 µM (active)
IC50 (HEK293 [3]): > 20 µM (inactive)
IC50 (HEK293 [4]): 8.92 µM (active)
EC50 [5]: 11.6 µM (active)
EC50 (HEK293 [6]): 2.81 µM (active)

O=C(NCc1cn(-c2ccccc2)nc1-c1ccccc1)c1cc([N+](=O)[O-])cc([N+](=O)[O-])c1
AC50 (Cytochrome P450 2C9): 2.82 µM (inconclusive)
EC50 [7]: > 60 µM (not active)
EC50 [8]: < 0.1 µM (active)
EC50 (cells [9]): 0.139 µM (active)

CSc1cccc(NC(=O)CN(c2ccccc2)S(=O)(=O)N(C)C)c1
IC50 (Estrogen receptor): > 50 µM (not active)

CCN(CC)CC(=O)Nc1cccc2c1C(=O)c1ccccc1C2=O
AC50 [10]: 100 µM (inactive)

COc1ccc2[nH]c3nc(SCc4nnc(-c5ccc(C)cc5)o4)nnc3c2c1
IC50 (Estrogen receptor): 6.84 µM (active)

N#Cc1ccc(N2CCN(S(=O)(=O)c3ccc4c(c3)CCN4C(=O)C3CC3)CC2)cc1
IC50 (HEK293 [11]): > 20 µM (inactive)
IC50 (Tumor necrosis factor): 13.3 µM (active)

Cc1ccccc1Cn1c(C)nc2ccc([N+](=O)[O-])cc2c1=O
IC50 (Fatty acid synthase [12]): 7.08 µM (active)
IC50 (Fatty acid synthase [13]): 9.84 µM (active)

Cc1cccn2c(=O)c(C=C(C#N)C#N)c(N3CCN(c4ccccc4)CC3)nc12
IC50 (Nonstructural protein 1): > 100 µM (active)

COc1ccc([N+](=O)[O-])cc1C(=O)NC1CCN(Cc2ccccc2)CC1
AC50 [14]: 2.3 µM (active)

Cc1ccc([N+](=O)[O-])cc1S(=O)(=O)NCC1COc2ccccc2O1 (centres undefined)
IC50 (Fatty acid synthase [12]): 4.43 µM (active)
IC50 (Fatty acid synthase [13]): 5.17 µM (active)

Cc1cc(OCC(=O)Nc2ccncc2)cc(C)c1Br
IC50 (HEK293 [1]): > 20 µM (inactive)
IC50 (HEK293 [2]): 6.86 µM (active)
IC50 (HEK293 [3]): 13.3 µM (active)
IC50 (HEK293 [4]): 5.24 µM (active)
EC50 [5]: 8.76 µM (active)
EC50 (HEK293 [6]): 3.21 µM (active)

O=C(Nc1nnc(-c2ccco2)o1)c1cccc2ccccc12
IC50 (cells [15]): 4.54 µM (active)
CC50 [16]: > 20 µM (active)

C[C@H](CO)N1C[C@H](C)[C@@H](CN(C)Cc2ccc(-c3ccccc3)cc2)Oc2c(NC(=O)c3ccc(-c4nccs4)cc3)cccc2C1=O
AC50 [17]: 5.28 µM (active)
AC50 [18]: 3.54 µM (active)

C[C@H](CO)N1C[C@H](C)[C@H](CN(C)Cc2ccccc2)Oc2ccc(NC(=O)Nc3ccc(C(F)(F)F)cc3)cc2C1=O
AC50 [18]: 6.57 µM (active)

COC(=O)N1[C@H](C)C=C[C@]1(Cc1ccccc1)C(=O)NCc1ccc(C)o1
AC50 (Cytochrome P450 3A4): 7.94 µM (inconclusive)
